Laboratory results: patent publication US11440913B2, “Aminoimidazopyridazines as kinase inhibitors” (BRISTOL-MYERS SQUIBB COMPANY, priority 2017, dated 2022)
Where a name gives a salt, the structure may show the parent alone. Read-outs that look alike come from different tables or passages of the source.

Assays:
[1] = target: His-GST-TVMV-hRIPK1(1-324) (Homo sapiens (Human), UniProt Q13546); test: RIPK1 HTRF Binding Assay; conditions: HTRF binding, 1 h at rt, read-out: RIPK1 (IC50)
In short: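 HTRF probe-displacement binding: 1 nM His-GST-TVMV-hRIPK1(1-324) (baculovirus construct), 90.6 nM probe, 0.2 nM anti-GST-Tb in 20 mM HEPES, 10 mM MgCl2, 0.015% Brij-35, 4 mM DTT, 0.05 mg/mL BSA. Incubated 1 h at rt; FRET 520/495 nm ratio, inhibition relative to DMSO-only wells.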

[2] = test system: MLKL phosphorylation in HT29-L23 human colorectal adenocarcinoma cells; test: MLKL Phosphorylation High-Content Assay; type: cell-based; conditions: 6 h, necroptosis induced with TNFα, SMAC mimetic and Z-VAD, read-out: pMLKL (IC50)
In short: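 HT29-L23 cells pretreated 30 min at 37 °C with compound (6.25 to 0.106 μM final), then necroptosis induced with TNFα 35 ng/mL, SMAC mimetic 700 nM and Z-VAD 140 nM for 6 h. Fixed cells immunostained for MLKL pS358 and imaged; IC50 and Ymax from 4-parameter logistic fit.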

Sequence of His-GST-TVMV-hRIPK1(1-324) (Q13546 1-324): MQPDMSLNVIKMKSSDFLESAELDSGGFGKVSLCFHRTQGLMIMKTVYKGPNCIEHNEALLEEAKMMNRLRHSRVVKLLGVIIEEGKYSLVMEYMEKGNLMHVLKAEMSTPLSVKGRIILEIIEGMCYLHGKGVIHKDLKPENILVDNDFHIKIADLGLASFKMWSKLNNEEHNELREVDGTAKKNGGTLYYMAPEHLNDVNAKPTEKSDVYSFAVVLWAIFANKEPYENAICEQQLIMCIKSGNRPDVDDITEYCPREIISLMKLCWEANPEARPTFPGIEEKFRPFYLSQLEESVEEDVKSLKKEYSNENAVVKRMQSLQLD

In the case of `CC(=O)Nc1cn2nc(-c3cc(C(=O)NCc4cc(F)cc(F)c4OCC4CC4)c(C)nc3C)ccc2n1` [Example 87, N-{[2-(cyclopropylmethoxy)-3,5-difluorophenyl]methyl}-5-{2-acetamidoimidazo[1,2-b]pyridazin-6-yl}-2,6-dimethylpyridine-3-carboxamide], the IC50 [1] is reported as 3 nM and the IC50 ([2]; Homo sapiens) is reported as 3 nM.

`COc1ncc(-c2ccc3nc(NC(=O)CC#N)cn3n2)cc1C(=O)NCc1cc(OC(F)(F)F)ccc1F` [Example 33, 5-[2-(2-cyanoacetamido)imidazo[1,2-b]pyridazin-6-yl]-N-{[2-fluoro-5-(trifluoromethoxy)phenyl]methyl}-2-methoxypyridine-3-carboxamide] showed an IC50 [1] of 186 nM and an IC50 ([2]; Homo sapiens) of 183 nM.

`COc1nc(C)c(-c2ccc3nc(NC(C)=O)cn3n2)cc1C(=O)NC(C)c1cc(OC(F)(F)F)ccc1F` (stereo not drawn) [Example 278, 5-{2-acetamidoimidazo[1,2-b]pyridazin-6-yl}-N-{1-[2-fluoro-5-(trifluoromethoxy)phenyl]ethyl}-2-methoxy-6-methylpyridine-3-carboxamide, TFA] was tested, and the IC50 ([1]; TFA) was 6 nM and the IC50 ([2]; TFA) was 64 nM.
